Patent US20260001898A1, “Heteroaryl compounds as inhibitors of TYK2/JAK1, composition and application thereof” (Accro Bioscience (HK) Limited, priority 2022, published 2026)

Test system: IFNα induced TYK2/JAK1 mediated STAT activation
Assay: Luciferase assay in L929 ISRE cells stimulated with IFN-α
Type: cell-based
Conditions: Mus musculus, IFN-α 100 ng/mL; for inhibition at 0.05 µM: 50 nM compound, read-out: Inhibitory activity % (50 nM); for inhibition at 0.2 µM: 200 nM compound, read-out: Inhibitory activity % (200 nM); for inhibition at 1 µM: 1000 nM compound, read-out: Inhibitory activity % (1000 nM)
Method: • 1. L929 ISRE cells (5000 cells/well) were seeded on 96-well plates and incubated overnight at room temperature-; • 2. The cells were pretreated by adding different concentrations (10 nM, 50 nM, 100 nM, 200 nM or 1000 nM) of the test compounds for 2 hours; • 3. Added IFN-α (100 ng/mL) to stimulate cells for 6 hours; • 4. Removed the upper medium, add PBS (100 μL) and washed, then removed PBS; • 5. Added PLB lysis solution (50 μL) to each well, shook the well for 15 minutes; • 6. Transferred PLB lysis solution (30 μL) to a new 96-well whiteboard, added LAR II reagent (LAR II), then quickly read the 450 nm OD value with a plate washer; • 7. Added Stop & Glo reagent (30 μL), then read the 450 nm OD value using the plate washer. • 8. The final result was the OD value in step 6/OD value in step 7.

| SMILES | inhibition at 0.05 µM | inhibition at 0.2 µM | inhibition at 1 µM |
| --- | --- | --- | --- |
| CCn1ccc(Nc2cc(Nc3cccc(-c4cc(P(=O)(C5CC5)C5CC5)n(C)n4)c3OC)c(C(N)=O)nn2)n1 [Compound A42] | 76% | 90% | 92% |
| CCP(=O)(CC)c1cnc(-c2cccc(Nc3cc(NC(=O)C4CC4)nnc3C(N)=O)c2OC)nc1 [Compound A14] | – | 23% | 76% |
| COc1c(-c2cc(P(=O)(C3CC3)C3CC3)n(C)n2)ccnc1Nc1cc(NC(=O)C2CC2)nnc1C(N)=O [Compound A18, 6-(cyclopropanecarboxamido)-4-((4-(5-(dicyclopropylphosphoryl)-1-methyl-1H-pyrazol-3-yl)-3-methoxypyridin-2-yl)amino)pyridazine-3-carboxamide] | 62% | 79% | 79% |
| [2H]C([2H])([2H])n1ccc(Nc2cc(Nc3cccc(-c4cc(P(=O)(C5CC5)C5CC5)n(C)n4)c3OC)c(C(N)=O)nn2)n1 [Compound A41] | 55% | 90% | 95% |
| COc1cc(P(=O)(C2CC2)C2CC2)ccc1Nc1cc(NC(=O)C2CC2)nnc1C(N)=O [Compound B5] | – | – | 0% |
| CCP(=O)(CC)c1ccc(Nc2cc(NC(=O)C3CC3)ncc2C(N)=O)c(OC)c1 [Compound B3, 6-(cyclopropanecarboxamido)-4-((4-(diethylphosphoryl)-2-methoxyphenyl)amino)nicotinamide] | – | – | 19% |
| COc1ccc(Nc2cc(Nc3cccc(-c4cc(P(C)(C)=O)n(C)n4)c3OC)c(C(N)=O)nn2)nc1 [Compound A30] | 14% | 58% | 90% |
| COc1c(Nc2cc(NC(=O)C3CC3)nnc2C(N)=O)cccc1-c1cc(P(=O)(C2CC2)C2CC2)[nH]n1 [Compound A48, 6-(cyclopropanecarboxamido)-4-((3-(5-(dicyclopropylphosphoryl)-1H-pyrazol-3-yl)-2-methoxyphenyl)amino)pyridazine-3-carboxamide] | 17% | 56% | 76% |
| COc1cc(P(=O)(C2CC2)C2CC2)ccc1Nc1cc(Nc2ccn(C)n2)nnc1C(N)=O [Compound B7] | – | – | 0% |
| COc1ccc(Nc2cc(Nc3cccc(-c4cc(P(=O)(C5CC5)C5CC5)n(C)n4)c3OC)c(C(N)=O)nn2)nc1 [Compound A5] | 91% | 97% | 99% |
| CCP(=O)(CC)c1cc(-c2cccc(Nc3cc(NC(=O)C4CC4)nnc3C(N)=O)c2OC)nn1C [Compound A6, 6-(cyclopropanecarboxamido)-4-((3-(5-(diethylphosphoryl)-1-methyl-1H-pyrazol-3-yl)-2-methoxyphenyl)amino)pyridazine-3-carboxamide] | 23% | 28% | 96% |
| COc1cc(P(=O)(C2CC2)C2CC2)ccc1Nc1cc(Nc2ccccn2)nnc1C(N)=O [Compound B4] | – | – | 8% |
| COc1c(Nc2cc(Nc3ccc(C#N)cn3)nnc2C(N)=O)cccc1-c1cc(P(C)(C)=O)n(C)n1 [Compound A31] | 9% | 54% | 75% |
| COc1c(Nc2cc(Nc3ccncn3)nnc2C(N)=O)cccc1-c1cc(P(=O)(C2CC2)C2CC2)n(C)n1 [Compound A40] | 61% | 80% | 96% |
| COC(=O)Nc1cc(Nc2cccc(-c3cc(P(=O)(C4CC4)C4CC4)n(C)n3)c2OC)c(C(N)=O)nn1 [Compound A23] | – | 38% | 85% |
| COc1c(Nc2cc(Nc3ncccn3)nnc2C(N)=O)cccc1-c1cc(P(=O)(C2CC2)C2CC2)n(C)n1 [Compound A38] | 36% | 66% | 89% |
| COc1c(-c2cc(P(C)(C)=O)n(C)n2)ccnc1Nc1cc(Nc2cc(C)ccn2)nnc1C(N)=O [Compound A55, 4-((4-(5-(dimethylphosphoryl)-1-methyl-1H-pyrazol-3-yl)-3-methoxypyridin-2-yl)amino)-6-((4-methylpyridin-2-yl)amino)pyridazine-3-carboxamide] | 34% | 63% | 90% |
| COc1c(-c2cc(P(=O)(C3CC3)C3CC3)n(C)n2)ccnc1Nc1cc(N)nnc1C(N)=O [Compound A13, 6-Amino-4-((4-(5-(dicyclopropylphosphoryl)-1-methyl-1H-pyrazol-3-yl)-3-methoxypyridin-2-yl)amino)pyridazine-3-carboxamide] | 9% | 71% | 95% |

| SMILES | inhibition at 0.05 µM | inhibition at 0.2 µM | inhibition at 1 µM |
| --- | --- | --- | --- |
| CNC(=O)Nc1cc(Nc2cccc(-c3cc(P(=O)(C4CC4)C4CC4)n(C)n3)c2OC)c(C(N)=O)nn1 [Compound A21] | 16% | 39% | 74% |
| COc1cccnc1Nc1cc(Nc2cccc(-c3cc(P(=O)(C4CC4)C4CC4)n(C)n3)c2OC)c(C(N)=O)nn1 [Compound A65] | 36% | 43% | 93% |
| COc1c(Nc2cc(Nc3ncccc3C#N)nnc2C(N)=O)cccc1-c1cc(P(=O)(C2CC2)C2CC2)n(C)n1 [Compound A43] | 0% | 18% | 64% |
| COc1ccnc(Nc2cc(Nc3cccc(-c4cc(P(=O)(C5CC5)C5CC5)n(C)n4)c3OC)c(C(N)=O)nn2)c1 [Compound A66] | 59% | 82% | 96% |
| COc1cccc(Nc2cc(Nc3cccc(-c4cc(P(=O)(C5CC5)C5CC5)n(C)n4)c3OC)c(C(N)=O)nn2)n1 [Compound A67] | 88% | 95% | 95% |
| COc1c(Nc2cc(Nc3cnccn3)nnc2C(N)=O)cccc1-c1cc(P(=O)(C2CC2)C2CC2)n(C)n1 [Compound A39] | 59% | 78% | 97% |
| COc1c(-c2cc(P(C)(C)=O)n(C3CC3)n2)ccnc1Nc1cc(Nc2cc(C)ccn2)nnc1C(N)=O [Compound A60] | – | – | 66% |
| COc1c(Nc2cc(NC(=O)C3CC3)nnc2C(N)=O)ncnc1-c1cc(P(=O)(C2CC2)C2CC2)n(C)n1 [Compound A3, 6-(cyclopropanecarboxamido)-4-((6-(5-(dicyclopropylphosphoryl)-1-methyl-1H-pyrazol-3-yl)-5-methoxypyrimidin-4-yl)amino)pyridazine-3-carboxamide] | 34% | 39% | 71% |
| COc1c(Nc2cc(Nc3ccccn3)nnc2C(N)=O)cccc1-c1cc(P(C)(C)=O)n(C)n1 [Compound A26] | – | – | 80% |
| COc1c(Nc2cc(NC(=O)C3CC3)nnc2C(N)=O)cccc1-c1ncc(P(C)(C)=O)cn1 [Compound A7, 6-(cyclopropanecarboxamido)-4-((3-(5-(dimethylphosphoryl)pyrimidin-2-yl)-2-methoxyphenyl)amino)pyridazine-3-carboxamide] | 18% | 25% | 64% |
| COc1c(Nc2cc(Nc3cccc(C#N)n3)nnc2C(N)=O)cccc1-c1cc(P(=O)(C2CC2)C2CC2)n(C)n1 [Compound A34] | 17% | 67% | 95% |
| COc1c(Nc2cc(N3CCCC3)nnc2C(N)=O)cccc1-c1cc(P(=O)(C2CC2)C2CC2)n(C)n1 [Compound A11, 4-((3-(5-(dicyclopropylphosphoryl)-1-methyl-1H-pyrazol-3-yl)-2-methoxyphenyl)amino)-6-(pyrrolidin-1-yl)pyridazine-3-carboxamide] | 6% | 86% | 95% |
| COc1c(Nc2cc(NC(=O)C3CC3)ncc2C(N)=O)cccc1-c1ccc(P(C)(C)=O)cc1 [Compound A61, 6-(cyclopropanecarboxamido)-4-((4′-(dimethylphosphoryl)-2-methoxy-[1,1′-biphenyl]-3-yl)amino)nicotinamide] | 8% | 23% | 59% |
| COc1c(Nc2cc(NC(=O)C3CC3)ncc2C(N)=O)cccc1-c1ccc(P(C)(C)=O)nc1 [Compound A62] | 3% | 5% | 56% |
| COc1c(Nc2cc(NC(=O)C3C[C@H]3F)nnc2C(N)=O)cccc1-c1cc(P(=O)(C2CC2)C2CC2)n(C)n1 (stereo partly shown) [Compound A47] | 8% | 19% | 62% |
| COc1c(Nc2nc(NC(=O)C3CC3)ncc2C(N)=O)cccc1-c1cc(P(=O)(C2CC2)C2CC2)n(C)n1 [Compound A19, 2-(cyclopropanecarboxamido)-4-((3-(5-(dicyclopropylphosphoryl)-1-methyl-1H-pyrazol-3-yl)-2-methoxyphenyl)amino)pyrimidine-5-carboxamide] | – | 28% | 71% |
| COc1cc(P(=O)(C2CC2)C2CC2)ccc1Nc1cc(Nc2cc(C)ccn2)nnc1C(N)=O [Compound B1, 4-((4-(dicyclopropylphosphoryl)-2-methoxyphenyl)amino)-6-((4-methylpyridin-2-yl)amino)pyridazine-3-carboxamide] | – | – | 0% |
